{"source": "patent US11154057B2", "about": "“Use of nootkatone to treat mosquito infestations” (EVOLVA SA, priority 2016, dated 2021)", "key": {"[1]": {"system": "Aedes aegypti pupae", "assay": "Prevention of adult emergence (eclosion) from pupae (Example No. 7)", "assay_type": "in vivo", "conditions": "for Dead adults, total number / Dead pupae, total number / live adults, total number / live pupae, total number: 0.015% NK/0.5% EtOH in water", "method": "Eggs of Aedes aegypti were purchased from a commercial supplier. They were hatched in sterile MilliQ water and fed with finely ground Tetramin® fish food until they developed into pupae.\nClean, glass 600 mL beakers were washed and thoroughly rinsed prior to use as test containers. On each of four testing days, pupae were removed from dishes used to grow larvae. Replicates of 10 pupae each were randomly assigned to glass beakers in a volume of 100 mL of sterile MilliQ water, and a treatment of nootkatone (see “Treatments” below), or a control treatment of ethanol alone, was added. The beakers were then covered lightly with Kimwipes, secured by rubber bands to prevent escape of adults. […]\nAn aliquot of 0.5 mL of a 3% solution (w/v) of nootkatone in 100% ethanol was added to treatment beakers to obtain a final concentration of 0.015% nootkatone/0.5% ethanol. Control beakers received 0.5 mL of 100% ethanol, to obtain a final concentration of 0.5% ethanol."}, "[2]": {"system": "Aedes aegypti larvae", "assay": "Nootkatone crystals dropped onto the water surface as larvicide (Example No. 9, Treatment 3)", "assay_type": "in vivo", "conditions": "for Alive / Dead / KD: 30 mg NK crystals in 100 mL water", "method": "In this example, nootkatone-containing compositions were evaluated for their ability to act as a larvicide by coating a water surface. Mixed sex 3rd and 4th instar Aedes aegypti larvae (Yellow fever mosquito) were tested.\nStandard storage conditions for nootkatone crystals is 4° C., therefore, the ability of crystals to coat a water surface without first liquifying them was tested. 30 mg of 98% pure nootkatone crystals was weighed and gently dropped onto the surface of 100 mL of water in a 600 mL clean, glass beaker containing 10 mixed sex 3rd and 4th instar Aedes aegypti larvae (3 replicates). Three control replicates of 10 larvae each were placed in identical beakers of 100 mL of water, but without nootkatone. All beakers were provided with finely ground fish food, and they were maintained at room temperature (˜72° F.)."}, "[3]": {"conditions": "0.015% nootkatone/0.5% ethanol, after 48 hours, of 150 pupae"}, "[4]": {"conditions": "30 mg nootkatone crystals, at 27 hours"}}}
{"smiles": "C=C(C)[C@@H]1CCC2=CC(=O)C[C@@H](C)[C@]2(C)C1", "note": "[Nootkatone, nootkatone]", "values": [{"measurement": "Dead adults, total number", "setting": "[1]; 2 DAT (48 hours), of 150 pupae", "value": 47}, {"measurement": "Dead pupae, total number", "setting": "[1]; 2 DAT (48 hours), of 150 pupae", "value": 103}, {"measurement": "live adults, total number", "setting": "[1]; 2 DAT (48 hours), of 150 pupae", "value": 0}, {"measurement": "live pupae, total number", "setting": "[1]; 2 DAT (48 hours), of 150 pupae", "value": 0}, {"measurement": "Dead adults, total number", "setting": "[1]; 24 hr, of 150 pupae", "value": 31}, {"measurement": "Dead pupae, total number", "setting": "[1]; 24 hr, of 150 pupae", "value": 31}, {"measurement": "live adults, total number", "setting": "[1]; 24 hr, of 150 pupae", "value": 0}, {"measurement": "live pupae, total number", "setting": "[1]; 24 hr, of 150 pupae", "value": 88}, {"measurement": "survivors", "setting": "[1]; 0.015% nootkatone/0.5% ethanol (v/v) in water, after 48 hours", "value": "no survivors"}, {"measurement": "share of pupae that died as pupae", "setting": "[1]; [3]", "value": 68.7, "unit": "%"}, {"measurement": "share of pupae that metamorphosed but died during eclosing", "setting": "[1]; [3]", "value": 31.3, "unit": "%"}, {"measurement": "Alive", "setting": "[2]; 1 hr", "value": 100, "unit": "%"}, {"measurement": "Dead", "setting": "[2]; 1 hr", "value": 0, "unit": "%"}, {"measurement": "KD", "setting": "[2]; 1 hr", "value": 0, "unit": "%"}, {"measurement": "Alive", "setting": "[2]; 27 hr", "value": 53, "unit": "%"}, {"measurement": "Dead", "setting": "[2]; 27 hr", "value": 7, "unit": "%"}, {"measurement": "KD", "setting": "[2]; 27 hr", "value": 40, "unit": "%"}, {"measurement": "Alive", "setting": "[2]; 54 hr", "value": 3, "unit": "%"}, {"measurement": "Dead", "setting": "[2]; 54 hr", "value": 70, "unit": "%"}, {"measurement": "KD", "setting": "[2]; 54 hr", "value": 27, "unit": "%"}, {"measurement": "Alive", "setting": "[2]; 77.5 hr", "value": 0, "unit": "%"}, {"measurement": "Dead", "setting": "[2]; 77.5 hr", "value": 97, "unit": "%"}, {"measurement": "KD", "setting": "[2]; 77.5 hr", "value": 3, "unit": "%"}, {"measurement": "killing", "setting": "[2]; 30 mg nootkatone crystals, after more than 3 days", "value": "below 100%"}, {"measurement": "larvae alive (unaffected plus affected)", "setting": "[2]; [4]", "value": 93, "unit": "%"}, {"measurement": "larvae that appeared to be unaffected", "setting": "[2]; [4]", "value": "~50", "unit": "%"}]}
